# Laboratory results from patent publication US4683240A, “Pharmaceutical composition containing an imidazolidinetrione derivative or pharmaceutically acceptable salt thereof” (Nippon Zoki Pharmaceutical Co., Ltd., priority 1985, dated 1987).
# Assays:
# Type in all cases: in vivo, rat (Wistar-strain)
# Blood Glucose = assay: Hypoglycemic effect in glucose-loaded fasted rats (blood glucose); conditions: for inhibition in vivo at 100 mg/kg: Rattus norvegicus, vs control, read-out: Blood Glucose Decrease; for inhibition in vivo at 100 mg/kg / Blood Glucose Level: Table 2, 100 mg/kg oral, 2 h; for Blood Glucose Level: control 133 ± 6
# Experimental: Groups of 7 Wistar-strain male rats (weighing about 200 g) which were fasted for 18 hours were used for measurement of hypoglycemic effect according to the modified method by Dulin et al. [Dulin, W. L. et al., Proc. Soc. Expl. Med., 107, 245 (1961)]. That is, 0.5 ml/100 g of 20% aqueous solution of glucose was subcutaneously administered to the backs of rats to prevent a decrease in blood glucose level because of the fasting. Immediately thereafter the test drug suspended in 0.5% aqueous C.M.C. solution was orally given, and 2 hours later, the animals underwent laparotomy under pentobarbital anesthesia, then blood was drawn from the vena cava. The obtained blood sample was allowed to stand for 30 minutes to complete the coagulation and was centrifuged to obtain the serum. Blood sugar level was measured according to the mutalotase GOD method [Trinder, Ann. Clin. Biochem., 6, 24 […]]. Asterisks indicate significant differences (*: p<0.05, **: p<0.01, ***: p<0.001) from the control.
# Serum Free Fatty Acid = assay: Hypolipidemic effect: serum free fatty acid; conditions: 2 h
# Experimental: (§1) The test drugs suspended in 0.5% aqueous C.M.C. solution were orally administered to groups of 8 Wistar-strain male rats (weighing about 185 g) which were fasted for 18 to 20 hours. 2 hours later, the serum was obtained in the same manner described in (2). Serum triglyceride was measured according to the GPO-p-chlorophenol colorimetric determination [Richard W. Spayd et al., Clinical Chemistry, 24, 1343 (1978)], serum free fatty acid was measured according to the Acyl CoA Synthetase-Acyl CoA Oxidase method [Shimizu S. et al., Biochem. Biophys. Res. Commun., 91, 108 (1979)], free fatty acid was measured according to the enzymatic method [Charles C. Allain et al., Clin. Chem., 20, No. 4, 470 (1974)] and total cholesterol was measured according to the enzymatic method [Takayama M. et al., Clinica Chimica Acta, 79, 93 (1977)]. Asterisks indicate significant differences (*: p<0.05, **: p<00.01, ***: p<0.001) from the control.
# Serum Phospholipid = assay: Hypolipidemic effect: serum phospholipid; conditions: 2 h
# Experimental: as §1
# Total Serum Cholesterol = assay: Hypolipidemic effect: total serum cholesterol; conditions: 2 h
# Experimental: as §1
# Serum Triglyceride = assay: Hypolipidemic effect: serum triglyceride; conditions: 2 h
# Experimental: as §1
# [1] = 100 mg/kg oral, control 0.53 ± 0.03 (compounds 2-12), 0.52 ± 0.03 (compounds 15-24)
# [2] = Rattus norvegicus, 100 mg/kg oral, vs control, read-out: Serum Free Fatty Acid Decrease
# [3] = 100 mg/kg oral, control 79 ± 2 (compounds 2-12), 72 ± 2 (compounds 15-29)
# [4] = Rattus norvegicus, 100 mg/kg oral, vs control, read-out: Serum Phospholipid Decrease
# [5] = 100 mg/kg oral, control 44 ± 2 (compounds 4-12), 41 ± 1 (compounds 15-29)
# [6] = Rattus norvegicus, 100 mg/kg oral, vs control, read-out: Total Serum Cholesterol Decrease
# [7] = 100 mg/kg oral, control 65 ± 5 (compounds 2-12), 57 ± 4 (compounds 15-29)
# [8] = Rattus norvegicus, 100 mg/kg oral, vs control, read-out: Serum Triglyceride Decrease
compound,measurement,setting,value
"CCCCNC(=O)NS(=O)(=O)c1ccc(C)cc1 [Tolubutamide, reference compound]",inhibition in vivo at 100 mg/kg,Blood Glucose,63.9%
same,Blood Glucose Level,Blood Glucose,48 ± 1 mg/dL
same,Blood sugar effect (in words),"Blood Glucose; oral, rats",excessive hypoglycemia
same,Serum Free Fatty Acid Level,"Serum Free Fatty Acid; 50 mg/kg oral, control 0.53 ± 0.03",0.44 ± 0.02 mEq/l
same,inhibition in vivo at 50 mg/kg,"Serum Free Fatty Acid; Rattus norvegicus, 50 mg/kg oral, vs control, read-out: Serum Free Fatty Acid Decrease",15.7%
same,Serum Phospholipid Level,"Serum Phospholipid; 50 mg/kg oral, control 79 ± 2",75 ± 2 mg/dL
same,inhibition in vivo at 50 mg/kg,"Serum Phospholipid; Rattus norvegicus, 50 mg/kg oral, vs control, read-out: Serum Phospholipid Decrease",5.1%
same,Total Serum Cholesterol Level,"Total Serum Cholesterol; 50 mg/kg oral, control 44 ± 2",46 ± 1 mg/dL
same,inhibition in vivo at 50 mg/kg,"Total Serum Cholesterol; Rattus norvegicus, 50 mg/kg oral, vs control, read-out: Total Serum Cholesterol Decrease",-4.5%
same,Serum Triglyceride Level,"Serum Triglyceride; 50 mg/kg oral, control 65 ± 5",53 ± 4 mg/dL
same,inhibition in vivo at 50 mg/kg,"Serum Triglyceride; Rattus norvegicus, 50 mg/kg oral, vs control, read-out: Serum Triglyceride Decrease",18.5%
"CCCCN1C(=O)NC(=O)C1=O [compound 4, 1-butylimidazolidinetrione]",inhibition in vivo at 100 mg/kg,Blood Glucose,33.8%
same,Blood Glucose Level,Blood Glucose,88 ± 7 mg/dL
same,Serum Free Fatty Acid Level,Serum Free Fatty Acid; [1],0.27 ± 0.02 mEq/l
same,inhibition in vivo at 100 mg/kg,Serum Free Fatty Acid; [2],49.1%
same,Serum Phospholipid Level,Serum Phospholipid; [3],58 ± 1 mg/dL
same,inhibition in vivo at 100 mg/kg,Serum Phospholipid; [4],26.6%
same,Total Serum Cholesterol Level,Total Serum Cholesterol; [5],39 ± 1 mg/dL
same,inhibition in vivo at 100 mg/kg,Total Serum Cholesterol; [6],11.4%
same,Serum Triglyceride Level,Serum Triglyceride; [7],23 ± 1 mg/dL
same,inhibition in vivo at 100 mg/kg,Serum Triglyceride; [8],64.6%
"CC(C)CN1C(=O)NC(=O)C1=O [compound 5, 1-iso-butylimidazolidinetrione]",inhibition in vivo at 100 mg/kg,Blood Glucose,39.1%
same,Blood Glucose Level,Blood Glucose,81 ± 1 mg/dL
"CC(C)(C)N1C(=O)NC(=O)C1=O [compound 6, 1-tert-butylimidazolidinetrione]",inhibition in vivo at 100 mg/kg,Blood Glucose,18%
same,Blood Glucose Level,Blood Glucose,109 ± 4 mg/dL
"CCCCCCN1C(=O)NC(=O)C1=O [compound 7, 1-hexylimidazolidinetrione]",inhibition in vivo at 100 mg/kg,Blood Glucose,23.3%
same,Blood Glucose Level,Blood Glucose,102 ± 6 mg/dL
same,Serum Phospholipid Level,Serum Phospholipid; [3],66 ± 2 mg/dL
same,inhibition in vivo at 100 mg/kg,Serum Phospholipid; [4],16.5%
same,Serum Triglyceride Level,Serum Triglyceride; [7],38 ± 3 mg/dL
same,inhibition in vivo at 100 mg/kg,Serum Triglyceride; [8],41.5%
"CCCCCCCCCCN1C(=O)NC(=O)C1=O [compound 9, 1-decylimidazolidinetrione]",inhibition in vivo at 100 mg/kg,Blood Glucose,18%
same,Blood Glucose Level,Blood Glucose,109 ± 4 mg/dL
"O=C1NC(=O)N(C2CCCC2)C1=O [compound 10, 1-cyclopentylimidazolidinetrione]",inhibition in vivo at 100 mg/kg,Blood Glucose,24.8%
same,Blood Glucose Level,Blood Glucose,100 ± 4 mg/dL
"O=C1NC(=O)N(C2CCCCC2)C1=O [compound 11, 1-cyclohexylimidazolidinetrione]",inhibition in vivo at 100 mg/kg,Blood Glucose,24.1%
same,Blood Glucose Level,Blood Glucose,101 ± 2 mg/dL
same,Serum Free Fatty Acid Level,Serum Free Fatty Acid; [1],0.34 ± 0.01 mEq/l
same,inhibition in vivo at 100 mg/kg,Serum Free Fatty Acid; [2],35.8%
same,Serum Phospholipid Level,Serum Phospholipid; [3],60 ± 2 mg/dL
same,inhibition in vivo at 100 mg/kg,Serum Phospholipid; [4],24.1%
same,Total Serum Cholesterol Level,Total Serum Cholesterol; [5],39 ± 1 mg/dL
same,inhibition in vivo at 100 mg/kg,Total Serum Cholesterol; [6],11.4%
same,Serum Triglyceride Level,Serum Triglyceride; [7],27 ± 1 mg/dL
same,inhibition in vivo at 100 mg/kg,Serum Triglyceride; [8],58.5%
"CN1C(=O)C(=O)N(C)C1=O [compound 12, 1,3-dimethylimidazolidinetrione]",inhibition in vivo at 100 mg/kg,Blood Glucose,15%
same,Blood Glucose Level,Blood Glucose,115 ± 4 mg/dL
same,Serum Free Fatty Acid Level,Serum Free Fatty Acid; [1],0.37 ± 0.03 mEq/l
same,inhibition in vivo at 100 mg/kg,Serum Free Fatty Acid; [2],30.2%
same,Serum Phospholipid Level,Serum Phospholipid; [3],61 ± 2 mg/dL
same,inhibition in vivo at 100 mg/kg,Serum Phospholipid; [4],22.8%
same,Total Serum Cholesterol Level,Total Serum Cholesterol; [5],39 ± 1 mg/dL
same,inhibition in vivo at 100 mg/kg,Total Serum Cholesterol; [6],11.4%
same,Serum Triglyceride Level,Serum Triglyceride; [7],35 ± 3 mg/dL
same,inhibition in vivo at 100 mg/kg,Serum Triglyceride; [8],46.2%
